Values of other authors in patent US10758479B2, “Galenical form for the administration of active ingredients by transmucous means” (priority 2006, dated 2020).

Experiments:
[1] = nasal, per-mucous path

## CNS(=O)(=O)Cc1ccc2[nH]cc(CCN(C)C)c2c1 [Sumatriptan]
Administered enterally
  period of action: about two
Administered via the digestive tract
  residual bioavailability: less than 14 % of the administered dose

## CN(C)C(=O)C(CCN1CCC(O)(c2ccc(Cl)cc2)CC1)(c1ccccc1)c1ccccc1 [loperamide, Loperamide]
In the 2 mg administered by the digestive tract
  portion of the effectively bioavailable dose: ≤ 0.25 mg

## C[C@]12CC[C@@H]3c4ccc(O)cc4CC[C@H]3[C@@H]1CC[C@@H]2O [estradiol]
[1]
  mean bioavailability: less than 25 % of the administered dose
